{
  "source": "patent US20240108753A1",
  "about": "“NUCLEIC ACID DELIVERY” (NUNTIUS THERAPEUTICS LIMITED, priority 2021, published 2024)",
  "key": {"HeLa cells": {"system": "HeLa cells", "experiment": "mRNA (eGFP) transfection with peptide dendrimers and DOTMA/DOPE in full growth medium", "format": "cell-based, human", "details": "HeLa; full growth medium; DOTMA/DOPE w/w 10:1 to mRNA; relative to G1,2-RL, 3-LR", "method": "FIG. 28. mRNA transfection of the peptide dendrimers with lipid system in vitro. […] The mRNA used expressed an eGFP reporter gene. Following a 24 hour transfection, the cells were harvested to assay the eGFP expression. The eGFP expression was normalised with the total amount of protein of each transfection. The gene expression level was calculated by normalising the transfection value of the G1,2-RL, 3-LR, DOTMA/DOPE & mRNA treated cells. 1st, 2nd and 3rd generation dendrimers with varying cores and 1st, 2nd, and 3rd generation peptide motifs can transfect cells with mRNA effectively under the tested conditions.\nFIG. 29. mRNA transfection of the peptide dendrimers with lipid system in vitro. HeLa cells were transfected with mRNA alone or mRNA with peptide dendrimers and DOTMA/DOPE (w/w=10:1 to mRNA). The N:P ratio of G1,2-RL,3-LR was at 0.16:1 while the N:P ratios of all other dendrimers at 8:1. The mRNA used expressed an eGFP reporter gene. Following a 24 hour transfection, the cells were harvested to assay the eGFP expression. The eGFP expression was normalised with the total amount of protein of each transfection. The gene expression level was calculated by normalising the transfection value of the G1,2-RL, 3-LR, DOTMA/DOPE & mRNA treated cells. 1st, 2nd and 3rd generation dendrimers with varying cores and 1st, 2nd, and 3rd generation peptide motifs can transfect cells with mRNA effectively under the tested conditions.\nThe effect on the number of generations of dendrimers on mRNA delivery was studied by transfecting HeLa cells in full growth medium conditions."}, "C2C12 cells": {"system": "C2C12 cells", "experiment": "Luciferase mRNA transfection compared to commercial reagents", "format": "cell-based", "details": "N:P=8:1, DOTMA/DOPE w/w=10:1 to mRNA, 24 hours", "excerpt": "FIG. 17. Luciferase and eGFP expression in HeLa or C2C12 cells following transfection with dendrimer compositions or commercially available transfection reagents. HeLa cells were transfected with 1) luciferase mRNA alone, a composition comprising G1,2-RL, 3-LR (NP=0.16:1), DOTMA/DOPE (w/w=10:1 to mRNA) and luciferase mRNA or a composition comprising Lipofectamine 2000™ and Luciferase mRNA (top left panel): or 2) eGFP mRNA alone, a composition comprising G1,2-RL, 3-LR (NP=0.18:1), DOTMA/DOPE (w/w=10:1 to mRNA) and eGFP mRNA or a composition comprising DLin-MC3-DMA: Cholesterol: DSPC: DMG-PEG lipid nano particle and eGFP mRNA (top right panel). C2C12 cells were transfected with luciferase mRNA alone, a composition comprising G1,2-RL, 3-LR (NP=8:1), DOTMA/DOPE (w/w=10:1 to mRNA) and luciferase mRNA, a composition comprising Lipofectamine 2000™ and luciferase mRNA or polyethylenimine and luciferase mRNA (bottom panel). Luciferase and eGFP expression was measured 24 hours after transfection. Peptide dendrimers of the present invention are more efficient at transfecting HeLa cells in vitro compared to commercially available transfection reagents, such as Lipofectamine 2000 and LNPs. […]"}, "mice tissue": {"system": "mice tissue", "experiment": "In vivo luciferase mRNA expression assays", "details": "for luciferase expression in tissues, mRNA delivery: intravenous, DOTMA/DOPE w/w=10:1 to mRNA, 6 hours", "method": "Peptide dendrimers were diluted to a respective concentration and mixed with mRNA for a desired NP ratio such as NP=0.15:1 or 8:1. The solution was incubated in room temperature for 10 mins. Lipid such as DOTMA/DOPE was diluted to a respective concentration and mixed with the dendrimer-mRNA complexes for a desired NP ratio such as NP-4.7:1. The solution was incubated in room temperature for 20 mins. When required, the solution would be further diluted before injection.\nAll animal procedures conducted in our studies complied with UK laws and were inclusive of ethics approval. Female CD-1 mice (n=39) aged 6-8 weeks left to habituate for 1-week upon their arrival. All mice were weighed, and the formulations were delivered intravenously (100 μl) via the tail vein using 30G insulin syringes (BD biosciences).\nAll mice were imaged 6 hours post injection. BLI was performed using an IVIS Lumina II (Perkin Elmer) Imaging system. Mice were administered D-luciferin (30 mg/mL, XenoLight, Perkin Elmer) at a dose of 150 mg/kg. Mice were anaesthetised 6 mins after receiving D-luciferin in a chamber with 5% isoflurane and then placed on a heated imaging platform while being maintained on 2.5% isoflurane. Mice were imaged 10 min post administration of D-luciferin with an exposure time set to ensure the signal acquired was within an effective detection range (open filter, binning 8, f-stop 1). Bioluminescence signal was quantified by measuring photon flux (photons/s) in the defined region of interest (ROI) using the Living Image software (Perkin Elmer). Following in vivo whole-body imaging, the mice were euthanised, cardiac blood taken, and the tissues extracted for ex vivo imaging. Here each tissue was placed into individual wells of a 24-well imaging plate (black sided, Eppendorf) containing 0.3 mg/mL D-luciferin in PBS). The imaging plate was placed in the centre of imaging platform (Lumina II system) and signal was measured using the acquisition settings detailed above. Finally, the tissues were placed in storage vials and flash frozen in liquid nitrogen.\nMice were injected with a composition comprising DOTMA/DOPE, mRNA encoding luciferase and either G1,2,3-RL, (FIG. 10, top panel; the “G1,2,3-RL, lipid and mRNA formulation”) or G1,2-RL,3-LR (FIG. 10, bottom panel: the “G1,2,3-RL, lipid and mRNA formulation”). Each formulation was prepared and injected at an NP ratio of 8:1 and 0.15:1. Mice were prepared for detection of luciferase expression post injection."}},
  "note": "Entries after “also recorded” stand apart in the source; their conditions may differ.",
  "data": [
    {"substance": "(LR)8(KRL)4(KRL)2KGSC-NH2 [G1,2-RL, 3-LR]", "values": [
      {"measurement": "mRNA transfection efficiency (eGFP), in words", "setting": "HeLa cells", "value": "the most effective in mRNA transfection"},
      {"measurement": "delivery of mRNA compared to commercially available transfection reagents", "setting": "C2C12 cells", "value": "improve delivery of mRNA to C2C12 cells"},
      {"measurement": "luciferase expression with PEG2000 lipid", "setting": "mice tissue; DOTMA/DOPE/PEG2000 compared to DOTMA/DOPE", "value": "attenuated luciferase expression"},
      {"measurement": "luciferase expression in tissues, mRNA delivery", "setting": "mice tissue; NP 0.15:1", "value": "significant expression in the Gastrocnemius and Quadricep muscle tissues, liver, heart, kidney and adipose tissue"},
      {"measurement": "luciferase expression in tissues, mRNA delivery", "setting": "mice tissue; NP 0.15:1, listed as G1,2-RL,3-LR", "value": "targets a wide range of immune cell tissues including lung, spleen, and lymph nodes; also recorded: improves efficiency of mRNA delivery to lung, spleen, and lymph nodes"},
      {"measurement": "luciferase expression in tissues, mRNA delivery", "setting": "mice tissue; NP 8:1", "value": "significant expression in the Gastrocnemius and Quadricep muscle tissues, liver, heart, kidney and adipose tissue; also recorded: significantly enhanced"}
    ]}
  ]
}
